Values after ≈ are worked out from the molar mass of the structure shown.
Experiments:
MM 46 (mammary cancer) = assay: In vitro cytotoxicity against mouse tumor cells, MM 46; type: cell-based; conditions: 72 h, 3 days, 37° C., trypan blue
Protocol: (§1) A suspension of cells in a culture medium was transferred into wells in a microplate in an amount of 1×10^5 cells/wall. Test sample diluted with a culture medium was added to the suspension in each well, and the mixture was incubated on the medium at 37° C. for 3 days in atmosphere of air containing 5% carbon dioxide. Thereafter, the incubated cells were recovered from the microplate and the number of live cells was counted by the dye exclusion test using a 0.5% solution of trypan blue and by using a hemocytomer.

Meth A solid tumor = assay: Anti-tumor test against methyl cholanthrene-induced Meth A solid tumor; type: in vivo, Balb/C/SLC mice; conditions: 1-8 Days
Protocol: (§2) Meth A tumor cells, 1.5×10^6, on Day 7 after intraperitoneal transplantation to Balb/C/SLC mice were subcutaneously transplanted to the left abdomen of Balb/C/SLC mice (5 week age, male) of 8 mice each being grouped in one (16 mice for the control group). The active component was orally administered in a definite dose 24 hours after the transplantation according to the schedule shown in Table 3. An effect of tumor growth inhibition was compared by measuring the long diameter and short diameter of the tumor on Days 15 and 21 after the transplantation, calculating the tumor size (mm^2) and determining a tumor growth inhibition rate of the active component-administered group to the control group.

Ehrlich ascites tumor = assay: Anti-tumor effect against Ehrlich ascites tumor; type: in vivo, ddY/SLC mice
Protocol: Ehlrich tumor cells, 1×10^6, on Day 7 after intraperitoneal transplantation to ddY/SLC mice were intraperitoneally transplanted to ddY/SLC mice (5 week age, male) of 10 mice each being grouped in one. The active component was intraperitoneally administered in a definite dose 24 hours after the transplantation according to the schedule shown in Table 4. An effect of tumor growth inhibition was evaluated by a percentage of the median survival day of the administered group versus that of the control group, according to the following equation.
T: median survival day of the administered group
C: median survival day of the control group

L-1210 = assay: In vitro cytotoxicity against mouse tumor cells, L-1210; type: cell-based; conditions: L1210, 72 h, L-1210, 3 days, 37° C., trypan blue, read-out: IC50
Protocol: as §1

[1] = system: liver cancer (MH-134) cells; assay: Inhibition of spontaneous metastasis (to the lymph node) of liver cancer (MH-134) cells in mice; type: in vivo, C3 H/He/SLC mice; conditions: 20th day
Protocol: (a) Inhibition of spontaneous metastasis (to the lymph node) of liver cancer (MH-134) cells in mice
MH-134 tumor cells, 1×10^6, on Day 7 after intraperitoneal transplantation to C3 H/He/SLC mice were transplanted to the right leg. On the 11th day after the transplantation, the right leg portion wherein the cancer cells were transplanted were cut off. The test compounds were administered orally in a definite dose 24 hours after the transplantation. In order to confirm metastasis-inhibiting effect, on 20th day of the transplantation the mice were anatomised to observe the metastasis to the lymph node in the inguinal portion. [formula] Further, the weight of the lymph node metastasis tumor in the inguinal portion of anatomised mice was measured. [formula]

MM-46 solid tumor = assay: Test against mouse mammalian MM-46 solid tumor; type: in vivo, C3 H/He/SLC mice; conditions: 1-9 Days
Protocol: as §2, with “MM-46 Tumor” for “Meth A tumor”, “1×10^6,” for “1.5×10^6,”, “C3 H/He/SLC” for “Balb/C/SLC”, “(21” for “(16”, “2.” for “3.”, “14” for “15”

Hela (uterine cancer) = assay: In vitro cytotoxicity against human tumor cells, Hela; type: cell-based; conditions: 72 h, 3 days, 37° C., crystalviolet
Protocol: A suspension of cells in a culture medium was transferred into wells in a microplate in an amount of 5×10^4 cells/well. Test sample diluted with a culture medium was added to the suspension in each well, and the mixture was incubated at 37° C. for 3 days in an atmosphere of air containing 5% carbon dioxide. After skimming, sticking cells were dyed which crystalviolet for 10 minutes. After washing with water, 1% sodium lauryl sulfate solution was added to each well, and the absrobancy (optical density) at […] was measured. "% inhibition" was calculated from the following equation. [formula]

melanoma BL-6 = assay: Inhibition of experimental metastasis (to the lung) of melanoma BL-6 in mice; type: in vivo, male BDF1 /SLC mice; conditions: 22th day
Protocol: (b) Inhibition of experimental metastasis (to the lung) of melanoma BL-6 in mice
BL-6 cancer cells, 5×10^4, were inoculated into the tail veins of male BDF1 /SLC mice (6 week age) of 6 mice each being grouped in one (13 mice for the control group). The test compounds were administered orally in a definite dose 24 hours after the inoculation. In order to see metastasis-inhibitory effect, on 22th day after the inoculation, the mice were anatomised to observe the metastasis to the lungs. The degree of metastasis was evaluated by the number of pulmonary nodules. [formula] T: Median number of pulmonary nodules of the administered group C: Median number of pulmonary nodules of the control group

[2] = 100 mg/kg i.p., 1, 3, 6, 8 & 10 Days
[3] = 100 mg/kg oral, 1, 3, 5, 7, 9, 11, 13 and 15 days
[4] = 200 mg/kg oral, 1, 3, 5, 7, 9, 11, 13 and 15 days
[5] = 400 mg/kg oral, 1, 3, 5, 7, 9, 11, 13 and 15 days
[6] = 200 mg/kg oral, 1, 2, 3, 5, 6, 7, 8, 9 and 10 days
[7] = 400 mg/kg oral, 1, 2, 3, 5, 6, 7, 8, 9 and 10 days

CCOC(=O)C(C)(C)CCCCOc1ccc(OCCCCCn2ccnc2)cc1 [Compound B]
IC50 (MM 46 (mammary cancer)): 0.7 µg/mL (≈ 1.68 µM)
Growth Inhibition Rate (Meth A solid tumor; Day 15, 100 mg/kg p.o.): 27.5%
Size of Tumor (Meth A solid tumor; Day 15, 100 mg/kg p.o.): 163.0 ± 41.9 mm^2
Growth Inhibition Rate (Meth A solid tumor; Day 15, 200 mg/kg p.o.): 46.4%
Size of Tumor (Meth A solid tumor; Day 15, 200 mg/kg p.o.): 124.5 ± 60.2 mm^2
Growth Inhibition Rate (Meth A solid tumor; Day 15, 400 mg/kg p.o.): 53.6%
Size of Tumor (Meth A solid tumor; Day 15, 400 mg/kg p.o.): 104.4 ± 56.9 mm^2
Growth Inhibition Rate (Meth A solid tumor; Day 21, 100 mg/kg p.o.): 18.8%
Size of Tumor (Meth A solid tumor; Day 21, 100 mg/kg p.o.): 387.9 ± 101.8 mm^2
Growth Inhibition Rate (Meth A solid tumor; Day 21, 200 mg/kg p.o.): 39.2%
Size of Tumor (Meth A solid tumor; Day 21, 200 mg/kg p.o.): 290.8 ± 100.9 mm^2
Growth Inhibition Rate (Meth A solid tumor; Day 21, 400 mg/kg p.o.): 41.6%
Size of Tumor (Meth A solid tumor; Day 21, 400 mg/kg p.o.): 279.3 ± 152.1 mm^2
Median Survival Day (Ehrlich ascites tumor; 15 mg/kg i.p., 1-9 Days): 16.0 days
No. of 40-day Survivors (Ehrlich ascites tumor; 15 mg/kg i.p., 1-9 Days): 0/8
T/C (median survival) (Ehrlich ascites tumor; 15 mg/kg i.p., 1-9 Days): 106%
Median Survival Day (Ehrlich ascites tumor; 30 mg/kg i.p., 1-9 Days): 22.5 days
No. of 40-day Survivors (Ehrlich ascites tumor; 30 mg/kg i.p., 1-9 Days): 1/8
T/C (median survival) (Ehrlich ascites tumor; 30 mg/kg i.p., 1-9 Days): 150.0%
Median Survival Day (Ehrlich ascites tumor; 60 mg/kg i.p., 1-9 Days): 21.5 days
No. of 40-day Survivors (Ehrlich ascites tumor; 60 mg/kg i.p., 1-9 Days): 2/8
T/C (median survival) (Ehrlich ascites tumor; 60 mg/kg i.p., 1-9 Days): 143.3%
Median Survival Day (Ehrlich ascites tumor; [2]): 26.5 days
No. of 40-day Survivors (Ehrlich ascites tumor; [2]): 2/8
T/C (median survival) (Ehrlich ascites tumor; [2]): 176.7%
IC50 (L-1210): 1.9 µg/mL (≈ 4.56 µM)
Growth inhibition of the metastasis tumor [1, 3]: 33.8%
Metastasis-inhibition rate [1, 3]: 8.5%
Growth inhibition of the metastasis tumor [1, 4]: 79.4%
Metastasis-inhibition rate [1, 4]: 41.2%
Growth inhibition of the metastasis tumor [1, 5]: 80.4%
Metastasis-inhibition rate [1, 5]: 73.9%
Growth Inhibition Rate (MM-46 solid tumor; Day 14, 100 mg/kg p.o.): 40.4%
Size of Tumor (MM-46 solid tumor; Day 14, 100 mg/kg p.o.): 150.1 ± 52.1 mm^2
Growth Inhibition Rate (MM-46 solid tumor; Day 14, 200 mg/kg p.o.): 41.3%
Size of Tumor (MM-46 solid tumor; Day 14, 200 mg/kg p.o.): 147.9 ± 56.2 mm^2
Growth Inhibition Rate (MM-46 solid tumor; Day 14, 400 mg/kg p.o.): 47.8%
Size of Tumor (MM-46 solid tumor; Day 14, 400 mg/kg p.o.): 131.5 ± 55.2 mm^2
Growth Inhibition Rate (MM-46 solid tumor; Day 21, 100 mg/kg p.o.): 55.8%
Size of Tumor (MM-46 solid tumor; Day 21, 100 mg/kg p.o.): 149.4 ± 84.8 mm^2
Growth Inhibition Rate (MM-46 solid tumor; Day 21, 200 mg/kg p.o.): 53.4%
Size of Tumor (MM-46 solid tumor; Day 21, 200 mg/kg p.o.): 147.5 ± 65.3 mm^2
Growth Inhibition Rate (MM-46 solid tumor; Day 21, 400 mg/kg p.o.): 53.4%
Size of Tumor (MM-46 solid tumor; Day 21, 400 mg/kg p.o.): 157.4 ± 104.0 mm^2
IC50 (Hela (uterine cancer)): 2.05 µg/mL (≈ 4.92 µM)
Pulmonary metastasis-inhibition rate (melanoma BL-6; [6]): 50.0%
The number of pulmonary nodules, median (melanoma BL-6; [6]): 10.5
The number of pulmonary nodules, range (melanoma BL-6; [6]): 1-20
Pulmonary metastasis-inhibition rate (melanoma BL-6; [7]): 69.0%
The number of pulmonary nodules, median (melanoma BL-6; [7]): 6.5
The number of pulmonary nodules, range (melanoma BL-6; [7]): 1-14

From US4758580A, “Inhibiting growth of tumors with certain substituted phenoxy dimethyl alkanoic acids, esters or salts” (Yamanouchi Pharmaceutical Co., Ltd., priority 1985, dated 1988)
